Assays:
[1] = test system: diamond back moth (Plutella xylostella); assay type: in vivo; conditions: 1,000 ppm; Chinese cabbage seedling with eggs immersed about 30 seconds; counted six days after the immersion; 25° C.
Text: Insecticidal effect on diamond back moth (Plutella xylostella)
Adult diamond back moths were released and allowed to oviposit on a Chinese cabbage seedling. […] Six days after the immersion, the hatched insects were counted. […] [formula] Criterion • A - - - Mortality 100% • B - - - Mortality 99-90% • C - - - Mortality 89-80% • D - - - Mortality 79-50%

[2] = test system: Common cutworm (Spodoptera litura); assay type: in vivo; conditions: 500 ppm; cabbage leaf immersed about 30 seconds; second-instar larvae; eight days after the inoculation; 25° C.
Text: Insecticidal Effect on Common cutworm (Spodoptera litura)

[3] = test system: rice leafroller (Cnaphalocrosis medinalis); conditions: 500 ppm; rice lamina immersed about 30 seconds; third-instar larvae; four days after the inoculation; 25° C., humidity 70%
Procedure: Insecticidal effect on rice leafroller (Cnaphalocrosis medinalis)
After air-dryness, the lamina was placed in a plastic Petri dish with a diameter of 9 cm whose bottom had been covered with a wetted filter paper. The lamina was inoculated with third-instar larvae of rice leafroller, after which the dish was allowed to stand in a room thermostatted at 25° C. and having a humidity of 70%. Four days after the inoculation, the dead and alive were counted and the insecticidal effect was judged according to the criterion shown in Test Example 1. The test was carried out with triplicate groups of 10 insects.

Measured: insecticidal effect (activity ranking by mortality)

CC(C)NC(=O)c1c(I)cccc1C(=O)Nc1ccc(C(F)(C(F)(F)F)C(F)(F)F)nc1 [Q27-136]
B or higher: [1] | [2] | [3]

CC(C)NC(=O)c1c(Cl)cccc1C(=O)Nc1ccc(Oc2ccc(Cl)cc2Cl)nc1 [Q27-30]
B or higher: [1] | [2] | [3]

CC(C)CSc1ccncc1NC(=O)c1cccc(Cl)c1C(=O)NC(C)C [Q27-32]
B or higher: [1] | [2] | [3]

CC(C)(C)NC(=O)c1c(I)cccc1C(=O)Nc1ccc(C(F)(C(F)(F)F)C(F)(F)F)nc1 [Q27-139]
B or higher: [1] | [2] | [3]

Cc1cc(C(F)(C(F)(F)F)C(F)(F)F)ncc1NC(=O)c1cccc(I)c1C(=O)NC(C)C [Q27-137]
B or higher: [1] | [2] | [3]

CC(C)(C)NC(=O)c1c(I)cccc1C(=O)Nc1ccc(C(F)(F)C(F)(F)C(F)(F)F)nc1 [Q27-141]
B or higher: [1] | [2] | [3]

Cc1nc(C(F)(C(F)(F)F)C(F)(F)F)ccc1NC(=O)c1cccc(I)c1C(=O)NC(C)(C)C [Q27-143]
B or higher: [1] | [2] | [3]

CC(C)CSc1ccc(NC(=O)c2c(Cl)cccc2C(=O)NC(C)C)cn1 [Q27-127]
B or higher: [1] | [2] | [3]

CCN(CC)C(=O)c1c(I)cccc1C(=O)Nc1ccc(Cl)cn1 [Q26-32]
B or higher: [1] | [2] | [3]

CCN(CC)C(=O)c1c(I)cccc1C(=O)Nc1ccc(Cl)nc1 [Q27-130]
B or higher: [1] | [2] | [3]

CC(C)NC(=O)c1c(Cl)cccc1C(=O)Nc1cnccc1SC(C)C [Q27-31]
B or higher: [1] | [2] | [3]

CC(C)NC(=O)c1c(I)cccc1C(=O)Nc1ccc(C(F)(F)C(F)(F)F)nc1 [Q27-134]
B or higher: [1] | [2] | [3]

CC(C)(C)NC(=O)c1c(I)cccc1C(=O)Nc1ccc(C(F)(F)C(F)(F)F)nc1 [Q27-140]
B or higher: [1] | [2] | [3]

CCN(CC)C(=O)c1c(I)cccc1C(=O)Nc1ncc(C(F)(F)C(F)(F)F)cc1C [Q26-29]
B or higher: [1] | [2] | [3]

Cc1cc(Oc2ccc(Br)cc2)ncc1NC(=O)c1cccc(Cl)c1C(=O)NC(C)C [Q27-98]
B or higher: [1] | [2] | [3]

Cc1cc(Cl)ncc1NC(=O)c1c(Cl)cccc1C(=O)NC(C)C [Q27-128]
B or higher: [1] | [2] | [3]

CC(C)NC(=O)c1cccc(Cl)c1C(=O)Nc1ccc(Oc2ccc(Cl)cc2Cl)nc1 [Q27-125]
B or higher: [1] | [2] | [3]

CC(C)NC(=O)c1c(Cl)cccc1C(=O)Nc1ccc(Oc2ccc(Br)cc2)nc1 [Q27-29]
B or higher: [1] | [2] | [3]

Cc1nc(C(F)(C(F)(F)F)C(F)(F)F)ccc1NC(=O)c1cccc(I)c1C(=O)NC(C)C [Q27-138]
B or higher: [1] | [2] | [3]

CCN(CC)C(=O)c1c(I)cccc1C(=O)Nc1ccc(C(F)(F)C(F)(F)C(F)(F)F)nc1Cl [Q27-129]
B or higher: [1] | [2] | [3]

— patent publication US6875768B1, “Phthalamide derivatives, intermediates in the production thereof, and agricultural/horticultural insecticides and method for using the same” (Nihon Nohyako Co., Ltd., priority 1999, dated 2005)
